Values of other authors as cited in publication PMC10675597, “Design, Synthesis, and Antisickling Investigation of a Thiazolidine Prodrug of TD-7 That Prolongs the Duration of Action of Antisickling Aromatic Aldehyde” (Pharmaceutics, 2023).

Legend:
[1] = parameters: method as in PMID 34657559, PMID 9490025, PMID 10376886, PMID 11154732; conditions: cited from earlier work
[2] = parameters: method as in PMID 15180869; conditions: cited from earlier work

| SMILES | oral bioavailability (in words) [1] | oral bioavailability compared to vanillin (in words) [2] | Cmax ([2]; oral, Sprague-Dawley rats) | Cmax, fold greater than vanillin ([2]; oral, Sprague-Dawley rats) | relative bioavailability, fold higher than vanillin ([2]; oral, Sprague-Dawley rats) |
| --- | --- | --- | --- | --- | --- |
| O=Cc1ccc(CO)o1 [5-HMF, 5-hydroxymethylfurfural] | low oral bioavailability | – | – | – | – |
| CCOC(=O)[C@H]1CSC(c2ccc(O)c(OC)c2)N1 (some centres unmarked) [MX-1520] | – | much better oral bioavailability | 9000 ng/mL | 4 fold | 30 fold |
| CC(C)n1nccc1-c1ncccc1COc1cccc(O)c1C=O [Voxelotor] | satisfactory oral bioavailability | – | – | – | – |
| COc1cc(C=O)ccc1O [vanillin] | low oral bioavailability | – | 2000 ng/mL | – | – |
